Measured values reported in patent US20240327364A1, “THERAPEUTIC TARGETING OF GPR68 TO INDUCE FERROPTOSIS” (University Of Maryland, Baltimore, priority 2023, published 2024).
Like-named read-outs stand apart in the source and are kept apart here.

Columns and labels:
PKN1 = target: T1, PKN1 (Homo sapiens, UniProt Q16512); assay: KinomeScan; type: binding; details: read-out: % Control
T1 construct: purchased DiscoveRx (Fremont, CA)

MAP3K1 = target: T2, MAP3K1 (Homo sapiens, UniProt Q13233); assay: KinomeScan; type: binding; details: read-out: % Control
T2 construct: purchased DiscoveRx

AURKA = target: T3, AURKA (Homo sapiens, UniProt O14965); assay: KinomeScan; type: binding; details: read-out: % Control
T3 construct: purchased DiscoveRx (Fremont, CA)

TRKB = target: T4, TRKB (Homo sapiens, UniProt Q16620); assay: KinomeScan; type: binding; details: read-out: % Control
T4 construct: purchased DiscoveRx (Fremont, CA)

KIT(A829P) = target: T5, KIT(A829P) (Homo sapiens, UniProt P10721, A829P); assay: KinomeScan; type: binding; details: read-out: % Control
T5 construct: purchased DiscoveRx

MST2 = target: T6, MST2 (Homo sapiens, UniProt Q13188); assay: KinomeScan; type: binding; details: read-out: % Control
T6 construct: purchased DiscoveRx

NEK11 = target: T7, NEK11 (Homo sapiens, UniProt Q8NG66); assay: KinomeScan; type: binding; details: read-out: % Control
T7 construct: purchased DiscoveRx

ULK1 = target: T8, ULK1 (Homo sapiens, UniProt O75385); assay: KinomeScan; type: binding; details: read-out: % Control
T8 construct: purchased DiscoveRx

CAMK4 = target: T9, CAMK4 (Homo sapiens, UniProt Q16566); assay: KinomeScan; type: binding; details: read-out: % Control
T9 construct: purchased DiscoveRx (KinomeScan service)

SRPK2 = target: T10, SRPK2 (Homo sapiens, UniProt P78362); assay: KinomeScan; type: binding; details: read-out: % Control
T10 construct: purchased DiscoveRx (Fremont, CA)

SNRK = target: T11, SNRK (Homo sapiens, UniProt Q9NRH2); assay: KinomeScan; type: binding; details: read-out: % Control
T11 construct: purchased DiscoveRx (Fremont, CA)

PTH1 = target: T12, PTH1 (Homo sapiens, UniProt Q03431); assay: GPCR Profiler; type: cell-based
T12 construct: host or cells: Chem-1 cells with Gα15

SRPK1 = target: T13, SRPK1 (Homo sapiens, UniProt Q96SB4); assay: KinomeScan; type: binding; details: read-out: % Control
T13 construct: purchased DiscoveRx (Fremont, CA)

Secretin = target: T14, Secretin (Homo sapiens, UniProt P47872); assay: GPCR Profiler; type: cell-based
T14 construct: host or cells: Chem-1 cells with Gα15

HEK293 = type: cell-based
Excerpt: FIG. 59A through FIG. 59D: OGM2 causes specific cell death in glioblastoma cells.
Thus, in contrast to erastin, OGM2 induces ferroptosis selectively in cancer cells.

T-47D = assay: Cell Titer-Glo viability, Breast cancer; type: cell-based
Experimental: (§1) OGM2 kills wide variety of cancer cell types. Cell sensitivity can be classified in to Very Sensitive (LC50<2 μM), Sensitive (LC50=2 to 10 μM), Mildly Sensitive (LC50>10 μM), and Refractory (no killing at 10 μM). The listed established cell were incubated with OGM2 at 2 μM or 10 μM for 72 hours under standard cell culture conditions, and relative cell number was assessed using Cell Titer-Glo Luminescent Cell Viability Assay (Promega™) following the manufacturer's instructions. Luminescence was determined using a Cytation 5 reader and Gen5 software package (BioTek™).
(§2) Cancer cells, which are very sensitive to killing by OGM2 (LCs <2 μM), with reported mRNA expression of GPR68 and the related proton sensing receptor GPR4. LC50's (concentrations causing 50% lethality) were determined using CellTiter-Glo (Promega™, G7570). Cells were plated in 12-well plates (CELLTREAT Scientific Products, 229112) in 1 ml of DMEM with high glucose, GlutaMAX, HEPES, or RPMI 1640 with Penicillin-Streptomycin (ThermoFisher™, 10564029, 11875119 and 15140122) and 10% FBS. Cells were incubated overnight at 37° C. in 5% CO2. Then 1 mL of fresh media was added with DMSO, OGM, or positive control (Erastin; APExBIO Technology, LLC, B1524) and cells incubated for 3 days. On the third day, all media was removed, cells were rinsed with 1×PBS, PBS was removed, and 200 μL of 1× Passive Lysis Buffer (Promega™, E1941) was added to each well. […]. Subsequently, 20 μL of lysate was added to 100 μL CellTiter-Glo™ reagent on a LUMITRAC 200 plate (Greiner™ bio-one, 82050-726). Plates were briefly spun down and read on a GloMax-Multi Detection System (Promega™).
(§3) The cells listed in the tables above were incubated with OGM2 at 2 μM or 10 μM for 72 hours under standard cell culture conditions, and relative cell number was assessed using Cell Titer-Glo Luminescent Cell Viability Assay (Promega™) following the manufacturer's instructions. Luminescence was determined using a Cytation 5 reader and Gen5 software package (BioTek™). RNA expression of GPR68 and GPR4 in the corresponding cancer cell lines are listed, according to the publicly available The Human Protein Atlas version 22.0 and Ensembl version 103.38 (see proteinatlas.org). The consensus normalized expression value (“nTPM”=normalize transcript per million) was calculated as the maximum nTPM value for each gene in the two data sources.

Panc02 = assay: Cell cycle analysis (propidium iodide flow cytometry); type: cell-based, mouse; details: 3 Gy radiation in combination with OGM
Experimental: Where appropriate, ANOVA, or student's T-test were conducted in PRISM. Chi squared T(X) was used for Liperfluo analysis. A value T(X)>4 implies that the two distributions are different with a p<0.01 (99% confidence). For drug interaction and therapeutic interaction, the coefficient of drug interaction (CDI) was calculated as follows: CDI=AB/(A×B). According to the impact of each group, AB is the value of combined treatment and A or B is the value of the single agent group to control group.
Both radiation and ferroptosis are known to induce G2/M arrest. Therefore, cells were treated with OGM2 and/or 3 Gy radiation. Media was then replaced, and cells were maintained for 24 hours. Cells were then trypsinized, pelleted, and fixed overnight in 70% Methanol at 4° C. Samples were then washed twice with cold PBS before being incubated with 10 mg/ml RNase A and 500 μg/ml propidium iodide in PBS in the dark for 30 minutes at room temperature. Cell cycle progression was determined by Flow cytometry using a LSR II from BD. FIG. 96A presents a cell cycle analysis of OGM2 treatment and irradiated Panc02 cells.

NCI-H82 = assay: Cell Titer-Glo viability, Lung cancer, small cell; type: cell-based
Experimental: as §1, §2, §3

T12 sequence (Q03431 27-593): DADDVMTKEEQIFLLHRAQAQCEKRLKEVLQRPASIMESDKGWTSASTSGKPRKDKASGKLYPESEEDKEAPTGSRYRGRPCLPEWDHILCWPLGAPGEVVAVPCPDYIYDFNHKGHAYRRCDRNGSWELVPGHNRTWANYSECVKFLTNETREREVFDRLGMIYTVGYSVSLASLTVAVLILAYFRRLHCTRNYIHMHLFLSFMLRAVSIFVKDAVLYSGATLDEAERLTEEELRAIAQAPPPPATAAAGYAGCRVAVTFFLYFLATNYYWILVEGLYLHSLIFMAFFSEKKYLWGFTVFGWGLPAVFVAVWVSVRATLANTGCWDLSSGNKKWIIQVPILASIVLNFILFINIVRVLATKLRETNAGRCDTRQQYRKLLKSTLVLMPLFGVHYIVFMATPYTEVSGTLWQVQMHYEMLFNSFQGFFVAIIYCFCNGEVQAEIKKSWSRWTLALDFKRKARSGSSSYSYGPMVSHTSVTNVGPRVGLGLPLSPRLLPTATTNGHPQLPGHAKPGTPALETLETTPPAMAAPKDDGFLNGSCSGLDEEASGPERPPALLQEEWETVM
T14 sequence (P47872 23-440): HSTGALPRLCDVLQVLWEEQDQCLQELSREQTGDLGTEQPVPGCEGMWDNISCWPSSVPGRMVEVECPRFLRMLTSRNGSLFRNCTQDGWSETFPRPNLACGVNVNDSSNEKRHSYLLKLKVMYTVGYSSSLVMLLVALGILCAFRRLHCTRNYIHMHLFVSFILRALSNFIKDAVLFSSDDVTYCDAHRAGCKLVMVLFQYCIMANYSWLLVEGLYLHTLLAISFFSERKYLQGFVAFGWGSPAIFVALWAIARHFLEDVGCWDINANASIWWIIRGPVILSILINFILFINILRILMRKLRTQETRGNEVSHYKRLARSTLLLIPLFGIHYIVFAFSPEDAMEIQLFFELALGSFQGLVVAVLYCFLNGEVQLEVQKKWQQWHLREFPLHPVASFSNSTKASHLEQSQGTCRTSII
T9 sequence (Q16566 whole entry): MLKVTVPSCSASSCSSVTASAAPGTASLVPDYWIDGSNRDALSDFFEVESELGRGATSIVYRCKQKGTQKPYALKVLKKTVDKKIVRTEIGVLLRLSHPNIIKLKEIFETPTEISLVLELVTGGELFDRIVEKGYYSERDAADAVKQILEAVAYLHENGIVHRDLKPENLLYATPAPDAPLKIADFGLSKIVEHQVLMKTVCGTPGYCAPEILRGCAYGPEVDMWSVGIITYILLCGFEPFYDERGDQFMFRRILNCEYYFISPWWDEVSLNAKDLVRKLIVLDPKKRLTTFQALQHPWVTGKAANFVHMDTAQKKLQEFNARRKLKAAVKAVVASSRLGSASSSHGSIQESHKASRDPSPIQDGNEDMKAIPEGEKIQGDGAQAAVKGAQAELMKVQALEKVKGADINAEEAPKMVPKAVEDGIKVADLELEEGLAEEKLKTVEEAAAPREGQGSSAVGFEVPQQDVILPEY
T1 sequence (Q16512 whole entry): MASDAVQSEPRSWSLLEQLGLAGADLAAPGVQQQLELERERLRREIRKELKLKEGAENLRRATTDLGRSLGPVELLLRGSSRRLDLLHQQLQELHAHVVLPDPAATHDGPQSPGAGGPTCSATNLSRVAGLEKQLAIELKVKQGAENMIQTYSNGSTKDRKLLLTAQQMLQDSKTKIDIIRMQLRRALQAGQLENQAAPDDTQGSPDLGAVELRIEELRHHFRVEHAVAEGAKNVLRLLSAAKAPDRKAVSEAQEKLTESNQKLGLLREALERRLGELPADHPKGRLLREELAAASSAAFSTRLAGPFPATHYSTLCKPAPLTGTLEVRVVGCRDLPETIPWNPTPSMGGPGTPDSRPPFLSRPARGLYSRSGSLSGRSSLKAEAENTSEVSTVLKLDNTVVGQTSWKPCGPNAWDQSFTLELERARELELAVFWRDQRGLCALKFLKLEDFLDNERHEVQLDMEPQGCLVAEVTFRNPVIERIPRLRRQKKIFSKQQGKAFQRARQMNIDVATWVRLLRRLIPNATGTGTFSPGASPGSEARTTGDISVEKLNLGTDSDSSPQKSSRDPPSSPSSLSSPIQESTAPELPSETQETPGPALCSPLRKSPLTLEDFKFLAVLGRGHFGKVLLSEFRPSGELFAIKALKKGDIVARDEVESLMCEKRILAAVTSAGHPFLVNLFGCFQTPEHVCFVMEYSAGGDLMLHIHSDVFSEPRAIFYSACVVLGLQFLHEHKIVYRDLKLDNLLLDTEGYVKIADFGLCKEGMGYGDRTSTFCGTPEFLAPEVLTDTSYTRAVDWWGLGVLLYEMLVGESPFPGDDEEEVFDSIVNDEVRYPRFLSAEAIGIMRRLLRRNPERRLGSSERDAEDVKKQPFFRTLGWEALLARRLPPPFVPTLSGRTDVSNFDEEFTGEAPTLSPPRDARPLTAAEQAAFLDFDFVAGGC
T6 sequence (Q13188 whole entry): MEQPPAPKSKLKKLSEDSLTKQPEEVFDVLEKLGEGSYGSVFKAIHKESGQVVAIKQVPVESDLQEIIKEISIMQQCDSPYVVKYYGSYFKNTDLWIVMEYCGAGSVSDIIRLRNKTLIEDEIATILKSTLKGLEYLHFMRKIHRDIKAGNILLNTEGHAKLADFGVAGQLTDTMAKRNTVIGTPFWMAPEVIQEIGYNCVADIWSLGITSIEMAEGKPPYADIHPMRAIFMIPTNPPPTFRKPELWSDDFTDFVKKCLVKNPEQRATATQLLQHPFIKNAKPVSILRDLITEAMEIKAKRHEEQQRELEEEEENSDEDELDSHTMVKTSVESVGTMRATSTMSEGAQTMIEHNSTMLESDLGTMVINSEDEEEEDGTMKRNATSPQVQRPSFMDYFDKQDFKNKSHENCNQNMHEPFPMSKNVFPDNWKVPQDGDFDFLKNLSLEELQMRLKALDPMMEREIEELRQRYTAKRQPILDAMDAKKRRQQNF
T8 sequence (O75385 whole entry): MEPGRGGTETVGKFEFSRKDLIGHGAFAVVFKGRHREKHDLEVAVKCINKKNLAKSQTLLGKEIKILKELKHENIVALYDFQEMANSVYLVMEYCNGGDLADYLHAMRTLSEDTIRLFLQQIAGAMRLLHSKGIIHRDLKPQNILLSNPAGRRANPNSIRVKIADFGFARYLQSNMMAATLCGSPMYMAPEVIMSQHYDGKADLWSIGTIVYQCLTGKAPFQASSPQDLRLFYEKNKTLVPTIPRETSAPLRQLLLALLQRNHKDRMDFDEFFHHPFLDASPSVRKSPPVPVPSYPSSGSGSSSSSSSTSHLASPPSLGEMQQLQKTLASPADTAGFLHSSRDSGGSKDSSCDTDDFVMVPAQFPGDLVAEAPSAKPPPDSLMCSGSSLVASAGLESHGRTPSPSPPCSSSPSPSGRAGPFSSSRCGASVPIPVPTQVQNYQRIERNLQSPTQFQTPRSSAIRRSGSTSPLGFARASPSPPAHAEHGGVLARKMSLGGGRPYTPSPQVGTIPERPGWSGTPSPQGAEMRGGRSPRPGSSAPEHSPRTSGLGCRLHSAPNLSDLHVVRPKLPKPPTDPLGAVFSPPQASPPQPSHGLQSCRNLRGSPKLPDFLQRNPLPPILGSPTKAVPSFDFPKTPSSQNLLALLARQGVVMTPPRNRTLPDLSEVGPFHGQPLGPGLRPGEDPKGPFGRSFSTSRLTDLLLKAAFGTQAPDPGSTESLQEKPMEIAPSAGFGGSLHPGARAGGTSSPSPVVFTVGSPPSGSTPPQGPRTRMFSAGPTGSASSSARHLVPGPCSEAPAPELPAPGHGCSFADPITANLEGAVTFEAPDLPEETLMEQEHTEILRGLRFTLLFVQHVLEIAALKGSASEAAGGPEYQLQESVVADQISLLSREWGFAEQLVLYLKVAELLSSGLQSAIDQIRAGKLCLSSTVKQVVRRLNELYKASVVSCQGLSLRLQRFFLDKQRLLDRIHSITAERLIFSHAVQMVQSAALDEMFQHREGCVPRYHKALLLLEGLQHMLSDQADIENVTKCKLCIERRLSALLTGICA
T5 sequence (P10721 26-976 A829P): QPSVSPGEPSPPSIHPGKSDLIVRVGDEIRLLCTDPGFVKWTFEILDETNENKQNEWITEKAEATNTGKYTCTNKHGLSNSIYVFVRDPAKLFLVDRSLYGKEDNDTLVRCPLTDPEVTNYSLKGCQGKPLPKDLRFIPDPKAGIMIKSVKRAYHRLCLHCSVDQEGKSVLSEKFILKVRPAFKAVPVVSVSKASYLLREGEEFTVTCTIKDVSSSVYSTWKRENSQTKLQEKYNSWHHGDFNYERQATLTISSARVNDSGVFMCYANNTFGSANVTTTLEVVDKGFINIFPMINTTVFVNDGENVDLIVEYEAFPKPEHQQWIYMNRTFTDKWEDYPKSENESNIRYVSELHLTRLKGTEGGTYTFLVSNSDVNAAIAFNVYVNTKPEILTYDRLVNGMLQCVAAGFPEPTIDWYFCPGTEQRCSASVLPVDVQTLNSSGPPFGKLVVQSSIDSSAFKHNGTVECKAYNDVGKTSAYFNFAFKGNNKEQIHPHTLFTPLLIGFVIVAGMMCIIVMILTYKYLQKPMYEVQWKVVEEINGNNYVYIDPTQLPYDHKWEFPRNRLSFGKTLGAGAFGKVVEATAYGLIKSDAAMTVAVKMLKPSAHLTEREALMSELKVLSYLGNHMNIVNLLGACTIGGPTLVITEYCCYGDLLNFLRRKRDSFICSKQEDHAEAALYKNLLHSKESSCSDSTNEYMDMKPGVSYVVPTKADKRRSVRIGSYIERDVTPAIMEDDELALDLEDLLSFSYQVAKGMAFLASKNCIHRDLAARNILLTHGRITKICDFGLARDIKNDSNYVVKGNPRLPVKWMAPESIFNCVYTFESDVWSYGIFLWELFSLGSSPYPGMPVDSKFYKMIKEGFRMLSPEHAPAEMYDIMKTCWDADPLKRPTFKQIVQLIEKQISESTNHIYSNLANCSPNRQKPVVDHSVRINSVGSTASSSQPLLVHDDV

CCc1ccc2c(c1)C1(NN=C(c3cccc4ccccc34)S1)C(=O)N2 (stereo not shown) [OGM1, 5-ethyl-5′-naphthalen-1-ylspiro[1H-indole-3,2′-3H-1,3,4-thiadiazole]-2-one] gave a remaining binding at 10 µM (PKN1) of 100%, a remaining binding at 10 µM (MAP3K1) of 72% and a remaining binding at 10 µM (AURKA) of 100%. The remaining binding at 10 µM (TRKB) was 51%, the remaining binding at 10 µM (KIT(A829P)) was 72% and the remaining binding at 10 µM (MST2) was 69%. For the same molecule, the remaining binding at 10 µM (NEK11) was 88%, the remaining binding at 10 µM (ULK1) was 100% and the remaining binding at 10 µM (CAMK4) was 100%. For the same molecule, the remaining binding at 10 µM (SRPK2) was 100%, the remaining binding at 10 µM (SNRK) was 100% and the Antagonism (PTH1; 10 uM) was 2.2. The Agonism (PTH1; 12.5 uM) was 0.7, the remaining binding at 10 µM (SRPK1) was 77% and the Antagonism (Secretin; 10 uM) was 1.7. For the same molecule, the Agonism (Secretin; 12.5 uM) was 0.9.

For CCc1ccc2c(c1)C1(NN=C(c3ccccc3)S1)C(=O)N2 (stereo not shown) [OGM2], the “HEK293 cell viability / survival” value (HEK293) was “no effect”, the Class (T-47D) was “Mildly” and the “% Survival 2 μM OGM” value (T-47D; 72 hours) was 76.4%. For the same molecule, the “% Survival 10 μM OGM” value (T-47D; 72 hours) was 61.7%, the CC50 (T-47D; Homo sapiens, T47D, 72 hours, read-out: LC50 (the source's name)) was over 10 µM and the “coefficient of drug interaction (CDI), G2 phase fraction” value (Panc02) was 0.689. For the same molecule, the “increase in the G2 phase fraction” value (Panc02) was 120%, the Class (NCI-H82) was “Mildly” and the “% Survival 2 μM OGM” value (NCI-H82; 72 hours) was 102.6%. For the same molecule, the “% Survival 10 μM OGM” value (NCI-H82; 72 hours) was 59.9%, the CC50 (NCI-H82; Homo sapiens, NCI-H82, 72 hours, read-out: LC50 (the source's name)) was over 10 µM and the Class (NCI-H82; Table 13) was “Low”.
